Laboratory results: US20160122305A1, “Topical Compositions and Methods of Use Thereof” (Avon Products, Inc., priority 2014, published 2016)
Read-outs that look alike come from different tables or passages of the source.

Key:
α2A adrenergic receptor = target: T1, α2A adrenergic receptor (Homo sapiens, UniProt P08913); assay: SelectScreen cell-based GPCR profiling, α2A agonist assay; settings: 5 hours incubation, fluorescence read
T1 sequence (P08913 1-465): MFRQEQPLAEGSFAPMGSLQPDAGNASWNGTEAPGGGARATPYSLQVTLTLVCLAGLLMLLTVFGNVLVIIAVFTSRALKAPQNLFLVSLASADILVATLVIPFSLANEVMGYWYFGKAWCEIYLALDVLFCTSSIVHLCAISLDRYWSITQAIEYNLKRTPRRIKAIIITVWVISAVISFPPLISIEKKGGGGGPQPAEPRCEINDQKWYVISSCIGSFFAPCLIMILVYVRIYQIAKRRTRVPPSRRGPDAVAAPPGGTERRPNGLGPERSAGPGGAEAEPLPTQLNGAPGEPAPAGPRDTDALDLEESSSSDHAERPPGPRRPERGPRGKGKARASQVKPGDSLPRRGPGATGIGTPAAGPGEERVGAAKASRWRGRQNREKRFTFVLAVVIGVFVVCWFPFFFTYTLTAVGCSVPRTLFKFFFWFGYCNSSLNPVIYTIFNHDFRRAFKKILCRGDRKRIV
Method: (§1) The Compounds of Formulas (III)-(V) were subjected to an in vitro screening against α1A, α2A, and β2 adrenergic receptors using SelectScreen® Cell-based GPCR Profiling Service from Life Technologies. In each of the three agonist assays (α1A, α2A, and β2), cells were thawed and resuspended in Assay Media (DMEM, 10% dialyzed FBS, 25 mM HEPES pH 7.3, 0.1 mM NEAA, 100 U/mL/100 μg/mL Pen/Strep) to a concentration of 312,500 cells/mL. 32 μL of cell suspension (10,000 cells) were added to each well of a 384-well TC-Treated assay plate. Cells in Assay Media were incubated for 16-24 hours in the plate at 37° C./5% CO2 in a humidified incubator. 4 μL of a 10× serial dilution of a control agonist (phenylephrine for α1A; UK 14304 for α2A; isoproterenol for β2) or a Compound III-V were added to appropriate wells of the plate. 4 μL of Assay Media was added to all wells to bring the final assay volume to 40 μL. The plate was incubated for 5 hours at 37° C./5% CO2 in a humidified incubator. 8 μL of 1 μM Substrate+Loading Solution was added to each well and the plate was incubated for 2 hours at room temperature. The plate was read on a fluorescence plate reader.

β2 adrenergic receptor = β2 adrenergic receptor (Homo sapiens, UniProt P07550); assay: SelectScreen cell-based GPCR profiling, β2 agonist assay; settings: 5 hours incubation, fluorescence read
Method: as §1

α1A adrenergic receptor = target: T2, α1A adrenergic receptor (Homo sapiens, UniProt P35348); assay: SelectScreen cell-based GPCR profiling, α1A agonist assay; settings: for selectivity of agonism (α1A and/or α2A EC50 less than 1,000 nM and insignificant activity at β2): classification in words from Table 1 EC50 values, insignificant β2 activity = EC50 greater than about 500 nM
T2 sequence (P35348 1-466): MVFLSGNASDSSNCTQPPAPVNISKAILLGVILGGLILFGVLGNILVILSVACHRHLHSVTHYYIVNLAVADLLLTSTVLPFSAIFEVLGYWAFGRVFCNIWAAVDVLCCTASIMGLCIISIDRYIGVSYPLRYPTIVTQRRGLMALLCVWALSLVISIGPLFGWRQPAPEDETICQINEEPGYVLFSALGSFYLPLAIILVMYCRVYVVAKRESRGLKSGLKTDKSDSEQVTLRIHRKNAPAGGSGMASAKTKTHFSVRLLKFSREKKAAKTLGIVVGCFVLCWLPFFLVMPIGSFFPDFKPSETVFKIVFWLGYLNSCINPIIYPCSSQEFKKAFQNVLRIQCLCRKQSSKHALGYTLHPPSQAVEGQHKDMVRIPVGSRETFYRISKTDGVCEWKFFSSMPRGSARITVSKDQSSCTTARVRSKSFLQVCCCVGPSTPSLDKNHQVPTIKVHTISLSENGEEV
Method: 32 μL of cell suspension (10,000 cells) were added to each well of a 384-well TC-Treated assay plate. Cells in Assay Media were incubated for 16-24 hours in the plate at 37° C./5% CO2 in a humidified incubator. […] 4 μL of Assay Media was added to all wells to bring the final assay volume to 40 μL. The plate was incubated for 5 hours at 37° C./5% CO2 in a humidified incubator. 8 μL of 1 μM Substrate+Loading Solution was added to each well and the plate was incubated for 2 hours at room temperature. The plate was read on a fluorescence plate reader.

[1] = agonist assay, 5 hours incubation, fluorescence read, read-out: α1A Activity, EC50

Chain of β2 adrenergic receptor (P07550 whole entry): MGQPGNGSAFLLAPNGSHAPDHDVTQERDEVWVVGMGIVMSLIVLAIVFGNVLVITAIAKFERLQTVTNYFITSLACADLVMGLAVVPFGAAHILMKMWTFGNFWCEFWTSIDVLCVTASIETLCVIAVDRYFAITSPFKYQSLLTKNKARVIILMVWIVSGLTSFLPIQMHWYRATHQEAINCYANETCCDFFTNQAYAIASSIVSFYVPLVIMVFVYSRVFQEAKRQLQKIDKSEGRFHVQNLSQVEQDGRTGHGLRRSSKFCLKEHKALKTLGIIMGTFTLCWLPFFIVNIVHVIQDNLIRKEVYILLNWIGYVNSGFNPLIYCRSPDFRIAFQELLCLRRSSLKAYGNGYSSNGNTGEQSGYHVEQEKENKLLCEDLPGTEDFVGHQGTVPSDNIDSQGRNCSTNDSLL

EC50 (α2A adrenergic receptor)	EC50 (β2 adrenergic receptor)	EC50 (α1A adrenergic receptor; [1])	selectivity of agonism (α1A and/or α2A EC50 less than 1,000 nM and insignificant activity at β2) (α1A adrenergic receptor)	Structure (SMILES)	EC50 (α1A adrenergic receptor)
> 25000 nM	> 25000 nM	13 nM	selective α1A receptor agonist	CC(Oc1ccccc1-c1cccnc1)C1=NCCN1 (centres unmarked) [IV]	
277 nM	> 63000 nM	32.6 nM	selective α1A and α2A receptor agonist	CC(Oc1ccccc1/C=N/O)C1=NCCN1 (centres unmarked) [V]	

Structure (SMILES)	EC50 (α2A adrenergic receptor)	EC50 (β2 adrenergic receptor)	EC50 (α1A adrenergic receptor; [1])	selectivity of agonism (α1A and/or α2A EC50 less than 1,000 nM and insignificant activity at β2) (α1A adrenergic receptor)	EC50 (α1A adrenergic receptor)
CC(Oc1ccccc1C1CCCC1)C1=NCCN1 (centres unmarked) [Compound III]	18.7 nM	> 6300 nM			< 0.119 nM
